Ends that are not written are not given here. Peptide text beside a SMILES is read from it.
Target: T1, ACE from rabbit lung (Oryctolagus cuniculus, UniProt P12822)
T1 construct: ACE from rabbit lung was purchased from Sigma Chemical Co; purchased Sigma Chemical Co. (St. Louis, MO, USA); host or cells: rabbit lung (tissue-derived)
T1 sequence (P12822 34-1310): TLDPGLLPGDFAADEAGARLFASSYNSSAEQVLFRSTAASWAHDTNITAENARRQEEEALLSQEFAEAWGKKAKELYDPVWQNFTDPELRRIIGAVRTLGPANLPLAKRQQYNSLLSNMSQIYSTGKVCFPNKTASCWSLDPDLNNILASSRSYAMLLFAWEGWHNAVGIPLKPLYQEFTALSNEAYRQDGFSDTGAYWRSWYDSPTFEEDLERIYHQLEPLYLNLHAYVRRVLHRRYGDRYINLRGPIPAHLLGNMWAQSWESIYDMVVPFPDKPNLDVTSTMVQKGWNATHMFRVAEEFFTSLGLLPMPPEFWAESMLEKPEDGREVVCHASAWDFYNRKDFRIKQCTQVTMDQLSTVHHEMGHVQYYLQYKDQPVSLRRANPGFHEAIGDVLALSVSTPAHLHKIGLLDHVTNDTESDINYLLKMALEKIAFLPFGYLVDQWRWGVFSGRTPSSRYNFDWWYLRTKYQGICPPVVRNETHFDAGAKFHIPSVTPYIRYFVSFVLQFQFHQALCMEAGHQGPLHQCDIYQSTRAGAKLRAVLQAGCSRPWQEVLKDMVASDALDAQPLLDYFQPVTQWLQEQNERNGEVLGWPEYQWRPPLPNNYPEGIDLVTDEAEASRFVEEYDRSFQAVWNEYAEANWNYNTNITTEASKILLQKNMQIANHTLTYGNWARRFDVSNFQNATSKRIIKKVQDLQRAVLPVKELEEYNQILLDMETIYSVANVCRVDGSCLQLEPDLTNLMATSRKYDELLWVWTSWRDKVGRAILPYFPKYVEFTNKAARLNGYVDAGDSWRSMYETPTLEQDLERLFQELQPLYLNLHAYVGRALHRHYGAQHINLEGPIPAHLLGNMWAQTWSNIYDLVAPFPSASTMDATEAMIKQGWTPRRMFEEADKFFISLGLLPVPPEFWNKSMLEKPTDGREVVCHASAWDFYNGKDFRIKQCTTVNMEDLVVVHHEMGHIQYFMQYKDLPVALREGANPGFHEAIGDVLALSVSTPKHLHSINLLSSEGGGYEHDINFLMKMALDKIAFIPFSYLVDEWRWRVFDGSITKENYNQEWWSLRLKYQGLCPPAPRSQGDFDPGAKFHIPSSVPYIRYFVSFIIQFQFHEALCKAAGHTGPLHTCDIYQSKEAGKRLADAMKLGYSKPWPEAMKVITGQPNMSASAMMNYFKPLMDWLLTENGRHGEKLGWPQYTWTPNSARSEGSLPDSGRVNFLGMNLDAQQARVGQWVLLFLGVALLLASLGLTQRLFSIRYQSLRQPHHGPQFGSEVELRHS
Assay: ACE inhibitory assay (Hip-His-Leu)
Type: biochemical
Settings: IC50 defined as absolute quantity of peptide to inhibit 50% of 1.0 U ACE; pre-incubated 37 °C 5 min; Hip-His-Leu 12.5 mM, 0.1 M sodium borate, 400 mM NaCl, pH 8.3, 37 °C, 1 h; hippuric acid absorbance at 228 nm; read-out: IC50 Value, ACE inhibitory activity of synthetic peptides
Text: ACE from rabbit lung was purchased from Sigma Chemical Co. (St. Louis, MO, USA). Hyppuryl-L-histidyl-L-leucine (Hip-His-Leu), thermolysin (EC 3.4.24.27) from Bacillus thermoproteolyticus, pepsin (EC 3.4.23.1) from porcine stomach, trypsin (EC 3.4.21.4) from bovine pancreas and chymotrypsin (EC 3.4.21.1) from bovine pancreas were purchased from Wako Pure Chemical (Osaka, Japan). Synthetic peptides (purity: 99.4%–99.8%) were purchased from Medical Biological Laboratories Co. (Nagoya, Japan). All other reagents were purchased from Wako Pure Chemical Industries (Osaka, Japan).
ACE inhibitory assay was carried out according to the method of Cheng and Cushman with some modifications. Fifteen microliters of sample solution (5.0 mg/mL) were added to 30 μL of ACE (0.2 units/mL), and the mixture was pre-incubated at 37 °C for 5 min. Thirty microliters of Hip-His-Leu solution (12.5 mM in 0.1 M sodium borate buffer containing 400 mM NaCl at pH 8.3) were added to the mixture. After incubation at 37 °C for 1 h, the reaction was stopped by adding 75 μL of 1.0 M HCl. The released hippuric acid was extracted with 450 μL of ethyl acetate. Four hundred microliters of the upper layer were evaporated, and then the hippuric acid was dissolved in 1.5 mL of distilled water. The absorbance at 228 nm of the solution was measured by a spectrophotometer. The inhibition was calculated from the equation [1 − (As − Asb)/(Ac − Acb)] × 100, where Ac is the absorbance of the buffer, Acb is the absorbance when the stop solution was added to the buffer before the reaction, As is the absorbance of the sample, and Asb is the absorbance when the stop solution was added to the sample before the reaction. In this study, we defined the IC50 as an absolute quantity of peptide to inhibit 50% of 1.0 U ACE.

Molecule | IC50 [nM]
CC(C)C[C@H](N)C(=O)N[C@@H](CC(=O)O)C(=O)N[C@@H](Cc1ccc(O)cc1)C(=O)O [LDY] (H-Leu-Asp-Tyr-OH) | 6100
CC(C)C[C@H](N)C(=O)N[C@@H](CCCNC(=N)N)C(=O)N[C@@H](Cc1ccc(O)cc1)C(=O)O [LRY] (H-Leu-Arg-Tyr-OH) | 44
CC(C)[C@H](N)C(=O)N[C@@H](Cc1ccc(O)cc1)C(=O)N[C@@H](CCCNC(=N)N)C(=O)N[C@H](C(=O)O)[C@@H](C)O [VYRT] (H-VYRT-OH) | 140
FEQDWAS [FEQDWAS] | > 2800
